From patent publication US20180171304A1, “CONTINUOUSLY BIOPRINTED MULTILAYER TISSUE STRUCTURE” (ASPECT BIOSYSTEMS LTD., priority 2015, published 2018)

System: muscle tube
Details: tube cultured for 14 days; contraction gradual over a 40 minute time period; FIG. 2
Description: In one embodiment, described herein are multi-layered tubes of muscle tissue. The tubes are created using a layer-by-layer deposition process by which muscle cells are dispersed within a solidified biocompatible matrix and bioprinted in a continuous fiber. In one embodiment, the fiber is deposited in a ring-like pattern to form a layer. These layers are stacked to form tubes, the height of which may be varied in a controlled way by changing the number of layers. Preferably, the matrix composition is physiologically compatible such that it allows the muscle cells to fully differentiate into a contractile phenotype. At the time of bioprinting, the tube is not contractile. […]
After bioprinting, the muscle structure must be submersed in cell culture media and placed in a cell culture incubator with temperature and carbon dioxide level control. […] In the preferred embodiment contraction and relaxation are measured by visual observation of changes in the diameter of the tube. […] Alternatively, a camera with an appropriate level of magnification could be positioned above the smooth muscle tube such that video footage of the tube from a top down perspective is recorded. […] The change in area, radius, diameter or circumference of the muscle tube may be quantified. […]

NCCc1c[nH]cn1 [histamine]
contraction of muscle tube (smaller diameter in contracted state): initiate contraction
